Drawing on publication PMC12224672, “Advancing the development of TRIP13 inhibitors: A high-throughput screening approach” (SLAS discovery : advancing life sciences R & D, 2025), this text covers IC50 for 1 compound.

This assay concerns the target T1, TRIP13 (Homo sapiens, UniProt Q15645).
T1 construct: full length, 1-432 aa, N-GST-tagged
T1 sequence (Q15645 1-432): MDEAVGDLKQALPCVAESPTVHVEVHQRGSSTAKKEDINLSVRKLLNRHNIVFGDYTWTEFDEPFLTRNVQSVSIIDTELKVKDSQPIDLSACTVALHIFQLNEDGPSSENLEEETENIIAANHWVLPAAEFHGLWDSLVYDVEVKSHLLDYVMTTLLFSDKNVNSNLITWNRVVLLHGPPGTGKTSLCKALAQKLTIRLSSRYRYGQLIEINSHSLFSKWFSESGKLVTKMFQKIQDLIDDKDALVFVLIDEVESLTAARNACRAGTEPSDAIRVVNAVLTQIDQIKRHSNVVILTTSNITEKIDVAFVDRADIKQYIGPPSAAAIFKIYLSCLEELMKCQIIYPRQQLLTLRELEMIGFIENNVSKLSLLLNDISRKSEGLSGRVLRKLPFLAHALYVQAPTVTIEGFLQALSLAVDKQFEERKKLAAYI
Briefly: ADP-Glo ATPase dose-response ([…] TRIP13, […] ATP) with ADP counter-screen; also CETSA in HeLa cells. The assay is classed as biochemical. In general terms: ADP-Glo first removes unused ATP, then detects ADP through luciferase.

Usually IC50 stands for the concentration that inhibits the measured activity by half. A lower IC50 goes with higher potency.

Turning to `COc1cc2c(Oc3ccc4[nH]c(C)cc4c3F)ccnc2cc1OCC1(N)CC1` [anlotinib], half-maximal inhibition (IC50) required 5.5 ± 1 µM.
